This is an account of results in paper PMC3006207, “Phosphorylation-Dependent Protein Interaction with Trypanosoma brucei 14-3-3 Proteins that Display Atypical Target Recognition” (PLoS ONE, 2010).

Assay [1] concerns heterodimeric T. brucei 14-3-3I+II. Kind of assay: NC-filter binding assay, heterodimeric T. brucei 14-3-3. On the set-up: species or system Trypanosoma brucei. To be noted: biotinylated peptide + streptavidine on nitrocellulose filter, GST-14-3-3 detected with α-GST antibodies. As to the method: (§1) Five µl of 1 mM biotinylated peptides, purchased from Scrum (Japan) were mixed with 15 µl of streptavidine (1 mg/ml) in the presence of 0.1% Tween20, spotted on NC-filters and dried. Filters were washed with TTBS, blocked with Protein-Free Blocking Buffer (Pierce), and then incubated with GST-14-3-3 proteins in TTBS containing 20% Protein-Free Blocking Buffer and 1 mM DTT. The filters were extensively washed four times with TTBS, and detected with anti-GST antibodies.

For a further assay, the target named is T1, human 14-3-3τ (Homo sapiens, UniProt P27348).
T1 construct: made in house
T1 sequence (P27348 1-245): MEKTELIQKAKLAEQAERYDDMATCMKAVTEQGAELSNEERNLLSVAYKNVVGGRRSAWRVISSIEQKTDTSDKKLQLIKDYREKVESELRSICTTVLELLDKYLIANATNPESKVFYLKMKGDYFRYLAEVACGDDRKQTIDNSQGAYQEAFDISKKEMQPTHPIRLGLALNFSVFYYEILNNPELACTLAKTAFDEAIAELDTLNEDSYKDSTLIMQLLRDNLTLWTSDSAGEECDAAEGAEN
Kind of assay: Surface plasmon resonance (BIAcore), phosphopeptide vs 14-3-3τ. The class given is binding. The following applies: 14-3-3τ; BIAcore 2000, BIAevaluation 3.0; biotinylated peptide on streptavidin chip (220 RU); HBS-EP buffer, 20 µl/min; read-out: estimated Kd of the mode 1 phosphopeptide. As to the method:
The surface plasmon resonance measurement was carried out using BIAcore 2000. A resonance unit value of 220 of biotinylated phosphopeptide pSRaf 259 (biotin-MAGGGRQRSTpSTPN) (mode 1 peptide) was coupled to a streptavidin-coated sensor chip (SA5, BIAcore). In the next step, 200 nM each of purified GST-14-3-3I, GST-14-3-3II, and GST–14-3-3τ, or 500 nM each of MBP-14-3-3I, MBP-14-3-3II, and MBP-14-3-3τ in HBS-EP buffer (BIAcore) was injected at a flow rate of 20 µl/min. A resonance unit value of 296 of biotinylated mode 2 peptide (biotin-MAGGGRLYHpSLP) was also coupled to SA5 and 200 nM each of GST-14-3-3I, GST-14-3-3II and GST-14-3-3τ in HBS-EP buffer, and was injected in the same manner.

For a further assay, the system named is human 14-3-3ζ. Kind of assay: NC-filter binding assay, human 14-3-3ζ. The following applies: biotinylated peptide + streptavidine on nitrocellulose filter; GST-14-3-3ζ detected with α-GST antibodies. As to the method:
as §1

In assay [2] the test system is proteins of HeLa and T. brucei PCF cell lysates. Kind of assay: Far-Western blot analysis of HeLa and PCF cell lysates with 14-3-3 probes. The class given is binding, HeLa (human) and Trypanosoma brucei. To be noted: for effect on interacting proteins, CalA (−) vs (+), with or without calcium: 1 mM CaCl2, T. brucei 14-3-3 probe 2 µg/ml, representative of three independent experiments. The method, then:
Far-Western blot analysis of Ser/Thr phosphatase inhibitor Calyculin A (CalA) treated + and/or untreated – of HeLa and/or 29-13 PCF cell lysates was performed. HeLa cells and/or 29-13 PCF cells were lysed with SDS-gel loading buffer supplemented with 2-mercaptoethanol (Bio-Rad, Hercules, CA) and sonicated. The cell lysates equivalent to 5×10^5 HeLa cells and 1×10^7 29-13 PCF cells were applied on 4–20% SDS-PAGE (Daiichi, Japan) and transferred to nitrocellulose filters (Millipore, Bedford, MA). The filters were denatured with denaturation buffer (6M guanidine-HCl, 50 mM Tris-HCl, pH 8.0, and 1 mM dithiothreitol [DTT]). The denaturation buffer was then diluted with an equal volume of 50 mM Tris-HCl, pH 8.0 with 1 mM DTT. After 15 min of denaturation, the filters were then treated with 2x diluted denaturation buffer. The same step was repeatedly carried out eight times and then renatured filters were washed twice with TTBS (50 mM Tris-HCl, pH 7.4, 0.1% Tween 20, and 150 mM NaCl). The resultant filters were blocked with TTBS containing 4% skim milk plus 1 mM DTT. Then the filters were incubated overnight with 1 or 2 µg/ml of GST-14-3-3 probes in 4% skim milk containing the blocking solution at 4°C. The filters were washed three times with TTBS and incubated with anti-GST polyclonal antibodies (Sigma) followed by horseradish peroxidase (HRP)-labeled anti-rabbit goat IgG (Jackson Immunoresearch Laboratories, West Grove, PA).

Assay [3] concerns endogenous 14-3-3I (T. brucei PCF lysates). Kind of assay: Peptide pull-down assay, endogenous 14-3-3I. The class given is binding, Trypanosoma brucei. The method, then:
(§2) Ten µl of streptavidin agarose beads (Sigma Chemical Co., St. Louis, MO) were incubated with 10 µl of 100 µM of pRaf 259 (biotin- MAGGGRQRSTSTPN) and/or pSRaf 259 at room temperature for 30 min and the beads were washed three times with lysis buffer (150 mM NaCl, 10 mM HEPES, pH 7.5, 0.2% NP-40, 50 mM NaF, 1 mM Na3VO4 and Roche protease inhibitor tablets). Next, 1×10^9 cells of T. brucei PCF were lysed with 2 ml of the lysis buffer on ice. Insoluble proteins were pelleted and 1 ml of the supernatant was used for each peptide pull-down assay. The lysates were incubated with each bead, rotated at 4°C for 2 hrs and washed with the lysis buffer three times. Twenty µl of 2xSDS Gel loading buffer with 2-mercaptoethanol were added to the washed beads, and 5 µl of eluates were run on 10–20% SDS-PAGE. The blots were detected with α-I and/or α–II Abs as described previously.

For assay [4], the system named is endogenous 14-3-3II (T. brucei PCF lysates). Kind of assay: Peptide pull-down assay, endogenous 14-3-3II. The class given is binding, Trypanosoma brucei. The method, then:
as §2

For assay [5], the target named is T2, GST-14-3-3τ (human 14-3-3τ fused to glutathione S-transferase) (human, UniProt P27348 1-245).
T2 construct: human 14-3-3 tau; also called GST-τ; source: purified
T2 sequence (looked up): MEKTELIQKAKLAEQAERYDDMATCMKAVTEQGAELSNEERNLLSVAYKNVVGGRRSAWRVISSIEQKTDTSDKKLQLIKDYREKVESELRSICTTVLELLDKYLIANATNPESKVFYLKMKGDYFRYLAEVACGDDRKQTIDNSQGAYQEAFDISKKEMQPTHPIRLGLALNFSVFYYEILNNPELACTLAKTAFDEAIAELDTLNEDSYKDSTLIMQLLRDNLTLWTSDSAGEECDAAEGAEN
Kind of assay: SPR. The following applies: both partners purified.

Assay [6] addresses T3, GST-14-3-3ζ (human 14-3-3ζ) (human, UniProt P63104 1-245).
T3 construct: human 14-3-3 zeta
T3 sequence (looked up): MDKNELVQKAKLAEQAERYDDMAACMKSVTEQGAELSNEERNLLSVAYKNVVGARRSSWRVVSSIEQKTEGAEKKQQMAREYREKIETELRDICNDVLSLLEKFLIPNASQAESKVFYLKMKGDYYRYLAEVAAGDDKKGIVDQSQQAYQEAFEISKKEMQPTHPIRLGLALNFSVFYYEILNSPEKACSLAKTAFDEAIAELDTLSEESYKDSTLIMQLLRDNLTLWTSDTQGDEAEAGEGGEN
Kind of assay: far-Western, overlay or dot blot. The following applies: both partners purified.

The next assay deals with T4, MBP-14-3-3τ (human, UniProt P27348 1-245).
T4 construct: human 14-3-3 tau; source: purified
T4 sequence (looked up): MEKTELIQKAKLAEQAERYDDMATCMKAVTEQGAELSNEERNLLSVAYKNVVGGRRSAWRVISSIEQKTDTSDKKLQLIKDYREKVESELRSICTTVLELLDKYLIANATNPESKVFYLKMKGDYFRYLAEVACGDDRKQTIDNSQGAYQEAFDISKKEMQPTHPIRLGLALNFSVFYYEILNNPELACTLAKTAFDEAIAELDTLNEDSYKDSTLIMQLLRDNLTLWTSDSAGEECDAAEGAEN
Kind of assay: SPR; BIAcore 2000; biotinylated phosphopeptide coupled to a streptavidin-coated chip (220 RU mode 1, 296 RU mode 2); 200 nM GST-14-3-3 or 500 nM MBP-14-3-3 proteins injected in HBS-EP at 20 µl/min; Kd by BIAevaluation 3.0. The following applies: both partners purified. In general terms: SPR reads the build-up and loss of mass on a sensor chip optically.

Assay [7] deals with T3, GST-14-3-3ζ (human 14-3-3ζ). Kind of assay: far-Western, overlay or dot blot; NC-filter binding assay: biotinylated peptides (1 mM) mixed with streptavidin, spotted on nitrocellulose and dried; incubated with GST-14-3-3 proteins in TTBS with 20% Protein-Free Blocking Buffer and 1 mM DTT; anti-GST detection. To be noted: both partners purified.

Square brackets hold non-standard residues; d marks the D form. Ends that are not written are not given here. Peptide text beside a SMILES is read from it. * marks the point of attachment. Biotin = O=C1N[C@H]2[C@H](CS[C@H]2CCCCC(=O)*)N1; pS = N[C@@H](COP(=O)(O)O)C(=O)O

In the case of -WLTRSRSLW [PP2c], the “interaction with spotted phosphopeptide” value in assay [1] is “failed to show the interactions”.

As to `CSCC[C@H](NC(=O)CCCC[C@@H]1SC[C@@H]2NC(=O)N[C@@H]21)C(=O)N[C@@H](C)C(=O)NCC(=O)NCC(=O)NCC(=O)N[C@@H](CCCNC(=N)N)C(=O)N[C@@H](CCC(N)=O)C(=O)N[C@@H](CCCNC(=N)N)C(=O)N[C@@H](CO)C(=O)N[C@H](C(=O)N[C@@H](COP(=O)(O)O)C(=O)N[C@H](C(=O)N1CCC[C@H]1C(=O)N[C@@H](CC(N)=O)C(=O)O)[C@@H](C)O)[C@@H](C)O` [pSRaf259] (Biotin-MAGGGRQRST[pS]TPN-OH), the Kd (commonly the concentration at which binding is half-saturated) on human 14-3-3τ is 220 nM.

As for “-LIEGRKQTVG [ACS, putative mode 3 synthetic phosphopeptide derived from ACS (acetyl-CoA synthetase, putative)]”, the “interaction with spotted phosphopeptide” value (in [1]; with human 14-3-3ζ) was “would not interact” each time.

Turning to `[Ca+2].[Cl-].[Cl-]` [CaCl2], the “effect on interacting proteins, CalA (−) vs (+), with or without calcium” value in assay [2] is listed as “no major difference”.

As for HVSGLKRRRpSV [p31-SAP part of …pSV], the “interaction with spotted phosphopeptide” value in assay [1] was “high-affinity”.

As to “MGGGLTRSRpSL [PP2c (-W), mode 3 phosphopeptide derived from PP2c-W]”, the “interaction with spotted phosphopeptide” value is listed as “failed to show the interactions” in [1], “not detected” in [1] (listed as MGGGLTRSRpSL) and “interacts with both phosphopeptides but with the preferential binding to the mode 3 peptide derived from p31-SAP” with human 14-3-3ζ.

For the molecule `COC[C@@H]([C@H](O)[C@H](O)C(=O)NCC[C@H](C)c1nc(/C=C/C[C@@H]2O[C@]3(C[C@@H](O)[C@@H]2C)O[C@H]([C@H](C[C@H](O)[C@H](C)[C@H](O)[C@H](C)/C=C(C)/C(C)=C/C=C/C(C)=C\C#N)OC)[C@H](OP(=O)(O)O)C3(C)C)co1)N(C)C` [calyculin A], the “effect on interacting proteins, CalA (−) vs (+), with or without calcium” value in assay [2] is “no major difference”. Besides, in assay [2] (PCF and HeLa cells, probe GST-τ), the “number and amounts of the 14-3-3τ-interacting protein upon treatment” value is “increased”.

As for “Biotin-MAGGGRQRSTSTPN [pRaf259, c-Raf-derived peptide in which 259Ser is unphosphorylated]”, the peptide pull-down interaction result is on record as “did not interact” in assay [3] (T. brucei PCF lysates, 5×10^8 cells/pull-down, Western blot α-I) and “did not interact” in assay [4] (T. brucei PCF lysates, 5×10^8 cells/pull-down, Western blot α-II). Besides, the “recovery of 14-3-3I by peptide-conjugated beads” value in assay [3] (longer exposure) is “No 14-3-3I was recovered”. Besides, in assay [4] (T. brucei PCF lysates, Western blot α-II, longer exposure), the “peptide pull-down interaction, longer exposure” value is “weak interaction”. In addition, the “amount of captured 14-3-3II, phospho- vs non-phospho-peptide beads” value in assay [4] (longer exposure) is “not different between phospho-(pSRaf259) and non-phospho-(pRaf259) peptide-conjugated beads”.

Take Biotin-MAGGGRLYH[pS]LP (not fully specified, also called mode 2 peptide) [mode 2 phosphopeptide (biotin-[residues removed]pSLP)]: the binding result in [5] and in assay [6] was “binds” throughout.

B1: c-Raf-derived phosphopeptide pSRaf259 (biotin-MAGGGRQRSTpSTPN) (peptide)
peptide: Biotin-MAGGGRQRST[pS]TPN
notes: spacer before the c-Raf stretch; human c-Raf 1 stretch around Ser-259; also called mode 1 peptide; mode 1 phosphopeptide; source: synthetic peptide
For B1, the binding result (with MBP-14-3-3τ; in [7]) was “binds” in each case.
